In ChEMBL document CHEMBL1201862, “PubChem BioAssay data set” (2004):
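96-well plates; 48 h exposure; 5 concentrations. Endpoints by linear interpolation between flanking doses. Not reached: highest tested concentration assigned. GI50 is the concentration that inhibits growth by half.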 Calls of active or inactive are those of the source. Cut-off read from the data, not from the text of the source: active = GI50 up to about 1.1 µM and inactive = higher.

Experiments:
Assay in all cases: DTP human tumour cell line panel, 48 h
SNB-19 = system: SNB-19
SF-539 = system: SF-539
SW-620 = system: SW-620
Hs-578T = system: Hs-578T
KM12 = system: KM12
HT-29 = system: HT-29
TK-10 = system: TK-10
OVCAR-4 = system: OVCAR-4
SK-OV-3 = system: SK-OV-3
MDA-N = system: MDA-N
RPMI-8226 = system: RPMI-8226
OVCAR-5 = system: OVCAR-5
MDA-MB-231 = system: MDA-MB-231
SK-MEL-5 = system: SK-MEL-5
SNB-75 = system: SNB-75
NCI-H23 = system: NCI-H23
T47D = system: T47D
A498 = system: A498
SK-MEL-2 = system: SK-MEL-2
CCRF-CEM = system: CCRF-CEM

| Compound | GI50 (SNB-19) | GI50 (SF-539) | GI50 (SW-620) | GI50 (Hs-578T) | GI50 (KM12) | GI50 (HT-29) | GI50 (TK-10) | GI50 (OVCAR-4) | GI50 (SK-OV-3) | GI50 (MDA-N) | GI50 (RPMI-8226) | GI50 (OVCAR-5) | GI50 (MDA-MB-231) | GI50 (SK-MEL-5) | GI50 (SNB-75) | GI50 (NCI-H23) | GI50 (T47D) | GI50 (A498) | GI50 (SK-MEL-2) | GI50 (CCRF-CEM) |
| --- | --- | --- | --- | --- | --- | --- | --- | --- | --- | --- | --- | --- | --- | --- | --- | --- | --- | --- | --- | --- |
| c1ccc(CN2CCC3(CC2)SSC2(CCN(Cc4ccccc4)CC2)SS3)cc1 | > 100 µM (inactive) | > 100 µM (inactive) | 5.48 µM (inactive) | > 100 µM (inactive) | > 100 µM (inactive) | 27.2 µM (inactive) | > 100 µM (inactive) | > 100 µM (inactive) | > 100 µM (inactive) | > 100 µM (inactive) | > 100 µM (inactive) | > 100 µM (inactive) | > 100 µM (inactive) | 57.3 µM (inactive) | > 100 µM (inactive) | 79.1 µM (inactive) | > 100 µM (inactive) | > 100 µM (inactive) | > 100 µM (inactive) | – |
| O=C(NN1C(=O)C(Cl)C1c1cccc([N+](=O)[O-])c1)c1ccccc1O (stereo not drawn) | 68.5 µM (inactive) | > 100 µM (inactive) | > 100 µM (inactive) | – | > 100 µM (inactive) | > 100 µM (inactive) | > 100 µM (inactive) | > 100 µM (inactive) | > 100 µM (inactive) | – | > 100 µM (inactive) | > 100 µM (inactive) | – | > 100 µM (inactive) | > 100 µM (inactive) | > 100 µM (inactive) | – | – | > 100 µM (inactive) | 35.6 µM (inactive) |
| O=C(Nc1ccc([N+](=O)[O-])cc1[N+](=O)[O-])C(=O)C(C(=O)c1ccc2ccccc2c1)C1OC(=O)c2ccccc21 (stereo not drawn) | 11.5 µM (inactive) | 4.5 µM (inactive) | 13.2 µM (inactive) | – | 22.4 µM (inactive) | 16.7 µM (inactive) | 24.1 µM (inactive) | 12.8 µM (inactive) | 13.5 µM (inactive) | – | 9.44 µM (inactive) | 20.2 µM (inactive) | – | 15.3 µM (inactive) | 14 µM (inactive) | 7.29 µM (inactive) | – | 17.6 µM (inactive) | 22.3 µM (inactive) | 9.51 µM (inactive) |
| CCCCCCCCCCCCCCCCOCC(COP(=O)([O-])OCC[N+](C)(C)C)OCCCCCCCCCCCCCCCC (stereo not drawn) | > 100 µM (inactive) | > 100 µM (inactive) | > 100 µM (inactive) | – | > 100 µM (inactive) | > 100 µM (inactive) | – | > 100 µM (inactive) | > 100 µM (inactive) | – | > 100 µM (inactive) | > 100 µM (inactive) | – | > 100 µM (inactive) | > 100 µM (inactive) | > 100 µM (inactive) | – | > 100 µM (inactive) | > 100 µM (inactive) | > 100 µM (inactive) |
| CC(=O)Nc1ccc(C2=N/C(=C\c3ccc(Cl)c(Cl)c3)C(=O)O2)cc1 | > 100 µM (inactive) | > 100 µM (inactive) | > 100 µM (inactive) | – | > 100 µM (inactive) | > 100 µM (inactive) | > 100 µM (inactive) | > 100 µM (inactive) | > 100 µM (inactive) | – | > 100 µM (inactive) | > 100 µM (inactive) | – | > 100 µM (inactive) | 64.6 µM (inactive) | > 100 µM (inactive) | – | > 100 µM (inactive) | > 100 µM (inactive) | > 100 µM (inactive) |
| NC(CCOCCP(=O)(O)CCC1C=CC=CC1)C(=O)O (stereo not drawn) | > 100 µM (inactive) | > 100 µM (inactive) | > 100 µM (inactive) | > 100 µM (inactive) | > 100 µM (inactive) | > 100 µM (inactive) | > 100 µM (inactive) | > 100 µM (inactive) | > 100 µM (inactive) | > 100 µM (inactive) | > 100 µM (inactive) | > 100 µM (inactive) | > 100 µM (inactive) | > 100 µM (inactive) | 64 µM (inactive) | > 100 µM (inactive) | 43.3 µM (inactive) | – | > 100 µM (inactive) | > 100 µM (inactive) |
| COc1ccccc1N1C(Cl)C(=O)C1c1c[nH]c2ccccc12 (stereo not drawn) | 26.7 µM (inactive) | > 100 µM (inactive) | > 100 µM (inactive) | – | > 100 µM (inactive) | > 100 µM (inactive) | > 100 µM (inactive) | > 100 µM (inactive) | > 100 µM (inactive) | – | > 100 µM (inactive) | 13.2 µM (inactive) | – | > 100 µM (inactive) | > 100 µM (inactive) | > 100 µM (inactive) | – | – | > 100 µM (inactive) | > 100 µM (inactive) |
| Cc1c2[nH]c3ccc(Br)cc3c2c(C)c2nccc(O)c12 | 14.5 µM (inactive) | 15.6 µM (inactive) | 11.7 µM (inactive) | – | 12.4 µM (inactive) | 14.4 µM (inactive) | 12.8 µM (inactive) | 16.3 µM (inactive) | – | – | 14.3 µM (inactive) | 14.5 µM (inactive) | – | 22.3 µM (inactive) | 25.8 µM (inactive) | 16 µM (inactive) | – | – | 17.5 µM (inactive) | 7.35 µM (inactive) |
| CN(c1ccccc1)c1c(-c2ccccc2)c(=O)oc2c1ccc1occc12 | > 100 µM (inactive) | > 100 µM (inactive) | > 100 µM (inactive) | – | > 100 µM (inactive) | > 95.7 µM (inactive) | – | > 81.8 µM (inactive) | > 100 µM (inactive) | – | – | – | – | > 100 µM (inactive) | > 100 µM (inactive) | > 100 µM (inactive) | – | > 100 µM (inactive) | > 100 µM (inactive) | > 100 µM (inactive) |
| Nc1nc(N)c2c(CCc3ccc(C(=O)N[C@@H](CCC(=O)O)C(=O)O)cc3)ccnc2n1 | 0.912 µM (active) | < 0.0145 µM (active) | – | 52 µM (inactive) | < 0.0283 µM (active) | < 0.0294 µM (active) | 0.0363 µM (active) | – | 0.0628 µM (active) | < 0.0129 µM (active) | < 0.0145 µM (active) | – | > 100 µM (inactive) | 0.0855 µM (active) | 0.323 µM (active) | < 0.0308 µM (active) | 75.5 µM (inactive) | 0.541 µM (active) | > 28.8 µM (inactive) | – |
| CC(=O)O[C@H]1[C@@H](OC(C)=O)C(C)(C)/C=C/[C@H](C)C(=O)[C@@]2(OC(C)=O)C[C@@](C)(OC(C)=O)[C@H](OC(C)=O)[C@@H]2[C@H]2OC(=O)CC[C@@]2(OC(=O)c2ccccc2)[C@@H]1OCC(C)C | > 100 µM (inactive) | 5.47 µM (inactive) | 10.7 µM (inactive) | 11.2 µM (inactive) | 39.1 µM (inactive) | 13.5 µM (inactive) | 3.61 µM (inactive) | 62.7 µM (inactive) | > 100 µM (inactive) | 7.11 µM (inactive) | – | > 100 µM (inactive) | > 100 µM (inactive) | 33.5 µM (inactive) | 17.8 µM (inactive) | 38.7 µM (inactive) | 58.5 µM (inactive) | – | > 100 µM (inactive) | 11.2 µM (inactive) |
| COc1cc2c(cc1Oc1c(Oc3c(O)c(OC)cc4c3C(CC(C)C)N(C)CC4)c(OC)cc3c1C(CC(C)C)N(C)CC3)C(CC(C)C)N(C)CC2 (stereo not drawn) | 0.582 µM (active) | 0.376 µM (active) | 0.879 µM (active) | – | 0.721 µM (active) | 0.547 µM (active) | – | 1.12 µM (inactive) | 1.12 µM (active) | – | 2.34 µM (inactive) | 5.11 µM (inactive) | – | 0.375 µM (active) | 0.611 µM (active) | 0.787 µM (active) | – | 0.152 µM (active) | 0.867 µM (active) | 0.8 µM (active) |
| CCN(CC)c1c(C)c(C(=O)OC)nn1-c1ccccc1 | > 72.1 µM (inactive) | > 100 µM (inactive) | > 100 µM (inactive) | – | > 85.3 µM (inactive) | 70.3 µM (inactive) | – | > 100 µM (inactive) | > 100 µM (inactive) | – | 23.2 µM (inactive) | > 100 µM (inactive) | – | 32.8 µM (inactive) | > 100 µM (inactive) | 33.6 µM (inactive) | – | > 85.1 µM (inactive) | > 89.7 µM (inactive) | 63.1 µM (inactive) |
| C=C1CC(OC)(C(O)C(=O)N[C@H]2OCO[C@H]3C2O[C@H](C[C@@H](CO)OC)C(C)(C)C3OC)O[C@H](C)[C@@H]1C (stereo partly drawn) | < 0.00931 µM (active) | < 0.00931 µM (active) | < 0.00931 µM (active) | – | < 0.00931 µM (active) | < 0.00931 µM (active) | – | < 0.00931 µM (active) | < 0.00931 µM (active) | – | < 0.00931 µM (active) | < 0.00931 µM (active) | – | < 0.00931 µM (active) | < 0.00931 µM (active) | < 0.00931 µM (active) | – | < 0.00931 µM (active) | 0.0931 µM (active) | 0.0125 µM (active) |
| O=C1C(=O)c2cc([N+](=O)[O-])ccc2-c2ccc([N+](=O)[O-])cc21 | 1.74 µM (inactive) | 0.741 µM (active) | 0.401 µM (active) | – | 0.935 µM (active) | 7.46 µM (inactive) | – | 0.322 µM (active) | 2.51 µM (inactive) | – | 0.302 µM (active) | 3.27 µM (inactive) | – | 1.92 µM (inactive) | 2.14 µM (inactive) | 0.682 µM (active) | – | 1.9 µM (inactive) | 2.02 µM (inactive) | 0.289 µM (active) |
| Cn1c(=O)nc2n(-c3ccc(Cl)cc3Cl)c3ccccc3nc-2c1=O | 13.7 µM (inactive) | 6.58 µM (inactive) | – | – | 3.96 µM (inactive) | 2.53 µM (inactive) | 26.2 µM (inactive) | 3.51 µM (inactive) | 30.8 µM (inactive) | – | 15.4 µM (inactive) | 33.8 µM (inactive) | – | 1.41 µM (inactive) | – | 3.27 µM (inactive) | – | – | 2.87 µM (inactive) | – |
| Nc1c(C(=O)Nc2ccc(C3=NCCN3)cc2)cccc1C(=O)Nc1ccc(C2=NCCN2)cc1 | > 100 µM (inactive) | > 100 µM (inactive) | > 100 µM (inactive) | – | > 100 µM (inactive) | > 100 µM (inactive) | – | > 100 µM (inactive) | > 100 µM (inactive) | – | > 100 µM (inactive) | > 100 µM (inactive) | – | > 100 µM (inactive) | > 64.9 µM (inactive) | > 100 µM (inactive) | – | > 100 µM (inactive) | > 100 µM (inactive) | > 100 µM (inactive) |
